PubChem BioAssay AID330 (DTP/NCI, 2004)
Inconclusive results and toxic doses are left out. How the source made its calls: active means survival T/C of 150% or more; inactive means T/C below 125% in these data.

Test system: P388 leukemia ip, CD2F1 mice, survival T/C
Assay: NCI In Vivo Anticancer Drug Screen. Data for tumor model P388 Leukemia (intraperitoneal) in CD2F1 (CDF1) mice
Conditions: endpoint: median survival time, higher = longer survival
How it was run: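 Mice carrying the transplanted tumor received test compound or vehicle. Survival was recorded in each group, and the value is the treated-group measurement divided by that of the vehicle-treated control group.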

[1] = dose: 50.0 mg/kg/injection, schedule: Q01DX005 (ip), vehicle: saline with Tween-80
[2] = dose: 100.0 mg/kg/injection, schedule: Q01DX005 (ip), vehicle: saline with Tween-80
[3] = dose: 200.0 mg/kg/injection, schedule: Q01DX005 (ip), vehicle: saline with Tween-80

Measured: T/C

COC(=O)/C(=C/c1ccc(/C=C(/C(=O)O)c2ccc(OC)cc2)o1)c1ccc(OC)cc1
inactive: dose: 100.0 mg/kg/injection, schedule: Q04DX002 (ip), vehicle: saline with Tween-80 96 % of control | dose: 200.0 mg/kg/injection, schedule: Q04DX002 (ip), vehicle: saline with Tween-80 92 % of control | dose: 400.0 mg/kg/injection, schedule: Q04DX002 (ip), vehicle: saline with Tween-80 101 % of control

CC1C(O)CC23COC(=O)C2=CCCC3C1(C)CCC1COC(=O)C1 (stereo unspecified)
inactive: dose: 9.38 mg/kg/injection, schedule: Q01DX005 (ip), vehicle: Klucel (hydroxypropylcellulose) (HPC) 101 % of control | dose: 18.75 mg/kg/injection, schedule: Q01DX005 (ip), vehicle: Klucel (hydroxypropylcellulose) (HPC) 90 % of control | dose: 37.5 mg/kg/injection, schedule: Q01DX005 (ip), vehicle: Klucel (hydroxypropylcellulose) (HPC) 105 % of control | dose: 75.0 mg/kg/injection, schedule: Q01DX005 (ip), vehicle: Klucel (hydroxypropylcellulose) (HPC) 117 % of control

C#CCn1cc(F)c(=O)n(CC#C)c1=O
inactive: dose: 30.0 mg/kg/injection, schedule: Q04DX002 (ip), vehicle: saline with Tween-80 101 % of control | dose: 60.0 mg/kg/injection, schedule: Q04DX002 (ip), vehicle: saline with Tween-80 99 % of control | dose: 120.0 mg/kg/injection, schedule: Q04DX002 (ip), vehicle: saline with Tween-80 98 % of control | dose: 150.0 mg/kg/injection, schedule: Q04DX002 (ip), vehicle: saline with Tween-80 107 % of control | dose: 240.0 mg/kg/injection, schedule: Q04DX002 (ip), vehicle: saline with Tween-80 100 % of control | dose: 300.0 mg/kg/injection, schedule: Q04DX002 (ip), vehicle: saline with Tween-80 104 % of control | dose: 600.0 mg/kg/injection, schedule: Q04DX002 (ip), vehicle: saline with Tween-80 98 % of control

CCCCCN(C)/N=N/c1nc[nH]c1C(N)=O
inactive: dose: 100.0 mg/kg/injection, schedule: Q04DX003 (ip), vehicle: saline with Tween-80 120 % of control | dose: 200.0 mg/kg/injection, schedule: Q04DX003 (ip), vehicle: saline with Tween-80 110 % of control | dose: 600.0 mg/kg/injection, schedule: Q04DX003 (ip), vehicle: saline with Tween-80 90 % of control

Cn1cnc2c(=O)[nH]c(N)nc21
inactive: [1] 102 % of control | [2] 107 % of control | [3] 107 % of control

Cc1cc(C(=O)O)c(C)c(S(=O)(=O)O)c1
inactive: dose: 12.5 mg/kg/injection, schedule: Q01DX009 (ip), vehicle: water 102 % of control | dose: 25.0 mg/kg/injection, schedule: Q01DX009 (ip), vehicle: water 97 % of control | dose: 50.0 mg/kg/injection, schedule: Q01DX009 (ip), vehicle: water 92 % of control | dose: 100.0 mg/kg/injection, schedule: Q01DX009 (ip), vehicle: water 102 % of control | dose: 200.0 mg/kg/injection, schedule: Q01DX009 (ip), vehicle: water 99 % of control

S=C1SCN(c2ccc(Br)cc2)CN1c1ccc2[nH]c(=S)sc2c1
inactive: dose: 6.25 mg/kg/injection, schedule: Q01DX009 (ip), vehicle: Klucel (hydroxypropylcellulose) (HPC) 106 % of control | dose: 12.5 mg/kg/injection, schedule: Q01DX009 (ip), vehicle: Klucel (hydroxypropylcellulose) (HPC) 113 % of control | dose: 25.0 mg/kg/injection, schedule: Q01DX009 (ip), vehicle: Klucel (hydroxypropylcellulose) (HPC) 106 % of control

O=P1(N2CCOCC2)OC(c2ccccc2)=CCN1c1ccccc1 (stereo unspecified)
inactive: dose: 50.0 mg/kg/injection, schedule: Q01DX005 (ip), vehicle: Klucel (hydroxypropylcellulose) (HPC) 103 % of control | dose: 100.0 mg/kg/injection, schedule: Q01DX005 (ip), vehicle: Klucel (hydroxypropylcellulose) (HPC) 103 % of control | dose: 200.0 mg/kg/injection, schedule: Q01DX005 (ip), vehicle: Klucel (hydroxypropylcellulose) (HPC) 104 % of control

C=C(c1ccc(Cl)cc1)c1ccc(OC)c(OC)c1
inactive: [1] 94 % of control | [2] 99 % of control | [3] 97 % of control

CCN(CC)C(=S)n1nc(C)c(N=Nc2cccc(Cl)c2Cl)c1C
inactive: dose: 6.25 mg/kg/injection, schedule: Q01DX005 (ip), vehicle: saline with Tween-80 103 % of control | dose: 12.5 mg/kg/injection, schedule: Q01DX005 (ip), vehicle: saline with Tween-80 97 % of control | dose: 25.0 mg/kg/injection, schedule: Q01DX005 (ip), vehicle: saline with Tween-80 93 % of control | [2] 91 % of control | [3] 94 % of control

CCCC1CC[N-]CC1.CCCC1CC[N-]CC1.[Cl][Pt+2][Cl]
inactive: dose: 11.0 mg/kg/injection, schedule: Q01DX009 (ip), vehicle: saline with Tween-80 100 % of control | dose: 16.5 mg/kg/injection, schedule: Q01DX009 (ip), vehicle: saline with Tween-80 110 % of control | dose: 22.0 mg/kg/injection, schedule: Q01DX009 (ip), vehicle: saline with Tween-80 110 % of control | dose: 25.0 mg/kg/injection, schedule: Q01DX009 (ip), vehicle: saline with Tween-80 115 % of control | dose: 33.0 mg/kg/injection, schedule: Q01DX009 (ip), vehicle: saline with Tween-80 110 % of control | dose: 37.5 mg/kg/injection, schedule: Q01DX009 (ip), vehicle: saline with Tween-80 115 % of control | dose: 50.0 mg/kg/injection, schedule: Q01DX009 (ip), vehicle: saline with Tween-80 120 % of control
